Measurements reported in paper PMC6175941, “Hydrophobic alkyl chains substituted to the 8-position of cyclic nucleotides enhance activation of CNG and HCN channels by an intricate enthalpy - entropy compensation” (Scientific Reports, 2018).

Key:
[1] = biological target: T1, homotetrameric HCN2 channels (Mus musculus, UniProt O88703); assay: Concentration-activation relationship of homotetrameric HCN2 channels, inside-out patches of Xenopus oocytes; type: cell-based; details: for H (Hill coefficient) / EC50: homotetrameric HCN2 channels, mean; for EC50: pre-activation at -130 mV, instantaneous current at -100 mV
T1 construct: expressed in transfected cells; host or cells: Xenopus laevis oocytes injected with cRNA; inside-out patches
T1 sequence (O88703 1-863): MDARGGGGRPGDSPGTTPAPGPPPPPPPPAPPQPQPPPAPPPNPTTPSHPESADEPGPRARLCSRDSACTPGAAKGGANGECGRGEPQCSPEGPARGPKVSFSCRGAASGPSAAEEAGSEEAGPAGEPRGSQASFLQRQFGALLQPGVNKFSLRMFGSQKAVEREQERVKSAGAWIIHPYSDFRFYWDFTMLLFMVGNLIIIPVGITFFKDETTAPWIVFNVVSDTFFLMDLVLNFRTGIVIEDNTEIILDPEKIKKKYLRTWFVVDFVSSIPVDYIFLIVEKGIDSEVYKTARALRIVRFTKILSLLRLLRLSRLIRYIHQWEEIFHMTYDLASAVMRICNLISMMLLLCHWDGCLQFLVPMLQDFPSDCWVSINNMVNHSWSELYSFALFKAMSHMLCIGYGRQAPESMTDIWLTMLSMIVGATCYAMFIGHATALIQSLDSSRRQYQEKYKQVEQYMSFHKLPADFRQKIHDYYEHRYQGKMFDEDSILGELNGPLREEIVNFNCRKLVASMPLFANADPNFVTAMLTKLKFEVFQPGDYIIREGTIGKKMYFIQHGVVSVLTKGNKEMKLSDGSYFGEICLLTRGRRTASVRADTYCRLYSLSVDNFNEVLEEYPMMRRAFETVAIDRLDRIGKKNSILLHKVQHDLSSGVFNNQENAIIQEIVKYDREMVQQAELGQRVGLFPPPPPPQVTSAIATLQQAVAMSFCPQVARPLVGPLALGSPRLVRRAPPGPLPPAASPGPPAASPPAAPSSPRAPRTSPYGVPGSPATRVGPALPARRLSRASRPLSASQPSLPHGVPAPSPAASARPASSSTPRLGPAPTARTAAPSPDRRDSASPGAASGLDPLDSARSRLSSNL
Experimental: (§1) The subunits CNGA2 (accession No. AF126808), CNGA4 (accession No. U12623) and CNGB1b (accession No. AF068572) of rat olfactory channels as well as mouse HCN2 channels (NM008226) were subcloned in front of the T7 promoter of pGEMHEnew. The respective cRNAs were produced by using the mMESSAGE mMACHINE T7 Kit (Ambion, Austin, TX).
The oocytes were exposed to collagenase A (3 mg/ml; Roche, Grenzach-Wyhlen, Germany) for 105 min in Ca^2+-free Barth’s solution containing (in mM) 82.5 NaCl, 2 KCl, 1 MgCl2 2, and 5 Hepes, pH 7.4. Oocytes at stages IV and V were injected with 50–130 ng of cRNA encoding either CNGA2, CNGA2:CNGA4:CNGB1b (2:1:1 ratio) or HCN2 channels either manually of or by means of an injection robot (RoboInject®). The injected oocytes were incubated at 18 °C for up to 6 days in Barth’s solution containing (in mM) 84 NaCl, 1 KCl, 2.4 NaHCO3, 0.82 MgSO4, 0.41 CaCl2, 0.33 Ca(NO3)2, 7.5 TRIS, cefuroxime (4.0 µg × ml^−1), and penicillin/streptomycin (100 µg × ml^−1), pH 7.4.
(§2) Macroscopic currents were recorded from inside-out patches of the oocytes by using standard patch-clamp techniques. The patch pipettes were pulled from quartz tubing (P-2000, Sutter Instrument, Novato, USA) with an outer and inner diameter of 1.0 and 0.7 mm (VITROCOM, New Jersey, USA). The corresponding pipette resistance was 0.9–2.3 MΩ. The bath and pipette solution contained (in mM): 150 KCl, 1 EGTA, 5 Hepes (pH 7.4 with KOH) for CNG measurements. For HCN measurements the bath solution contained 100 mM KCl, 10 mM EGTA, 10 mM HEPES (pH 7.2) and 120 mM KCl, 10 mM HEPES, and 1.0 mM CaCl2 (pH 7.2) in the pipette. Recording was carried out at room temperature using an Axopatch 200B amplifier (Axon Instruments, Foster City, CA). Electrophysiology was controlled by the Patchmaster-software (HEKA Elektronik Dr. Schulze GmbH, Lambrecht, Germany). The sampling rate was 5 kHz and the filter implemented in the amplifier (4-pole Bessel) was set to 2 kHz. Measurements in HCN2 channels were generally started 3.5 min after patch excision to minimize channel run down during the measurement[14],[27],[70]. The solutions with the ligand concentrations to be tested were applied via a multi-barrel device to the patches with a flow rate of 0.8 to 1.2 ml/min.
(§3) I is the actual current amplitude and Imax the maximum current amplitude at a saturating cNMP concentration specified for each cNMP and channel. EC50 is the cNMP concentration generating the half maximum current and H the Hill coefficient.

[2] = biological target: T2, heterotetrameric CNGA2:CNGA4:CNGB1b channels (Rattus norvegicus, UniProt A0A8I5ZN27+Q00195+Q64359); assay: Concentration-activation relationship of heterotetrameric CNGA2:CNGA4:CNGB1b channels, inside-out patches of Xenopus oocytes; type: cell-based; details: heterotetrameric CNGA2:CNGA4:CNGB1b channels, mean; for EC50: late current at +10 mV
T2 construct: expressed in transfected cells; host or cells: Xenopus laevis oocytes co-injected with cRNAs (2:1:1); inside-out patches
T2 sequence (Q64359 whole entry, one chain of several): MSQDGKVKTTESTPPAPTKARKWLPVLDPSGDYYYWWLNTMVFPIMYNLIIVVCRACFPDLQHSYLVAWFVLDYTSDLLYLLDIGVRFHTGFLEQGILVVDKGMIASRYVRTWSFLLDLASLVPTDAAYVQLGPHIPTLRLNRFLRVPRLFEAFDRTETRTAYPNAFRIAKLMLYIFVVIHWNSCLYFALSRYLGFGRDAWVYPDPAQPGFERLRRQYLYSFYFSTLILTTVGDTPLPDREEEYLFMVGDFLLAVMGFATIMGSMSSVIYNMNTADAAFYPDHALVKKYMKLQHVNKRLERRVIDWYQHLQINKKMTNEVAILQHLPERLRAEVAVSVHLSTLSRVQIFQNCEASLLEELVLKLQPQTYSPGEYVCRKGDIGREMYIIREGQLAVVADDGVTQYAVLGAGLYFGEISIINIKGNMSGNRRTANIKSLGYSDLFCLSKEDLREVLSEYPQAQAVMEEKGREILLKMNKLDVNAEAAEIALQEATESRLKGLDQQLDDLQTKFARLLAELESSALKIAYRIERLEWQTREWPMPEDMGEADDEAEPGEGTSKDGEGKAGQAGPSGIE
T2 sequence (A0A8I5ZN27 1-858 isoform A0A8I5ZN27-2, one chain of several): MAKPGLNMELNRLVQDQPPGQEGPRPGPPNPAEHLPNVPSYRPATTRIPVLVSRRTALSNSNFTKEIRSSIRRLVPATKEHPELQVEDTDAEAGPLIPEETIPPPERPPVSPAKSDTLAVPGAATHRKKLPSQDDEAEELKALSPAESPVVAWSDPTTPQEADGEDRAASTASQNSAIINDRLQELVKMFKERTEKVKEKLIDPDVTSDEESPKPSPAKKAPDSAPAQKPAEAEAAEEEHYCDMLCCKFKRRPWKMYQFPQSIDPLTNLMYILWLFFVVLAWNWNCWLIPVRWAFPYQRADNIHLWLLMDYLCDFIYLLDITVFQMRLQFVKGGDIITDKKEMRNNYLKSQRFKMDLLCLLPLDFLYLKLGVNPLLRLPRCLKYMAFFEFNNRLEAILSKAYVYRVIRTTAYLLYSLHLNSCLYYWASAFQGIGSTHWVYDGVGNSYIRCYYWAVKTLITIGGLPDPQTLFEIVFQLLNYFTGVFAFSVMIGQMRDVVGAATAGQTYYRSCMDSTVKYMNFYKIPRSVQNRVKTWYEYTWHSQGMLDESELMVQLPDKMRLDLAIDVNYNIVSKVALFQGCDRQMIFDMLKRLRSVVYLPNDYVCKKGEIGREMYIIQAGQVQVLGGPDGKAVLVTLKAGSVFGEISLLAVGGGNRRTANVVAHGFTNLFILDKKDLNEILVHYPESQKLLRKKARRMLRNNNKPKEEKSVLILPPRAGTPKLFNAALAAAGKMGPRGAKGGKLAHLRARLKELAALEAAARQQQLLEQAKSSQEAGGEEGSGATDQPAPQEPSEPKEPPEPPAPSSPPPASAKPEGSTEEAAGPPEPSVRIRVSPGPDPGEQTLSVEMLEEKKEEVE
Experimental: (§4) For each cNMP derivative a complete concentration-activation relationship was recorded, and the data points were fitted with the Hill equation (equation 1) yielding the concentration of half maximum activation (EC50) and the Hill coefficient H (Fig. 1b,c).
as §1
(§5) Oocytes at stages IV and V were injected with 50–130 ng of cRNA encoding either CNGA2, CNGA2:CNGA4:CNGB1b (2:1:1 ratio) or HCN2 channels either manually of or by means of an injection robot (RoboInject®). The injected oocytes were incubated at 18 °C for up to 6 days in Barth’s solution containing (in mM) 84 NaCl, 1 KCl, 2.4 NaHCO3, 0.82 MgSO4, 0.41 CaCl2, 0.33 Ca(NO3)2, 7.5 TRIS, cefuroxime (4.0 µg × ml^−1), and penicillin/streptomycin (100 µg × ml^−1), pH 7.4.
as §2, §3

[3] = biological target: T3, homotetrameric CNGA2 channels (Rattus norvegicus, UniProt Q00195); assay: Concentration-activation relationship of homotetrameric CNGA2 channels, inside-out patches of Xenopus oocytes; type: cell-based
T3 construct: expressed in transfected cells; host or cells: Xenopus laevis oocytes injected with cRNA; inside-out patches
T3 sequence (Q00195 1-664): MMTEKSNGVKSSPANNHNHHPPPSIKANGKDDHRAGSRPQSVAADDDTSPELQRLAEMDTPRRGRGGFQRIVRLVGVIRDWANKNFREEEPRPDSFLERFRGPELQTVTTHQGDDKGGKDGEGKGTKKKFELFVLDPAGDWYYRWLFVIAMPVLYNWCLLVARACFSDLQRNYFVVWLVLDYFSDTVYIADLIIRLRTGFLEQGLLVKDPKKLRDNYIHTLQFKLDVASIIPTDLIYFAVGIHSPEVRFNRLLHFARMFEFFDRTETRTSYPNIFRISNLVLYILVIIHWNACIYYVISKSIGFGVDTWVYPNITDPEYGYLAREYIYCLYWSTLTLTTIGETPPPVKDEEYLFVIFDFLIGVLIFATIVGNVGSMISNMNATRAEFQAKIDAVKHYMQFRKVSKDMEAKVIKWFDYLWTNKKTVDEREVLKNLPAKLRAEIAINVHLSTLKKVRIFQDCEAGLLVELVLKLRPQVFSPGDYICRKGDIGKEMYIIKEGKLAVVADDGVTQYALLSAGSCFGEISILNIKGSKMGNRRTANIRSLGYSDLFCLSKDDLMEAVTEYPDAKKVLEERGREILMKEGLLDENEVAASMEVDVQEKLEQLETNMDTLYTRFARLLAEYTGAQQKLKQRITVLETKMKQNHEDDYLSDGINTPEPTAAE
Experimental: as §4, §1, §5, §2, §3

CNGA2 channels = biological target: T4, CNGA2 channels (Rattus norvegicus, UniProt Q00195); assay: Activation and deactivation kinetics by concentration jumps, CNGA2 channels; type: cell-based
T4 construct: expressed in transfected cells; host or cells: Xenopus laevis oocytes injected with cRNA; inside-out patches
T4 sequence (Q00195 1-664): T3 sequence (Q00195 1-664)
Source text: (§6) We applied concentration jumps from zero to a defined level and back to zero, yielding the time constants τa and τd, respectively (c.f. Methods section). If the enhancement of the apparent affinity is caused by solely accelerating the binding rate, τa would be decreased and τd would be unaffected. Conversely, if the hydrophobic alkyl chain enhances the apparent affinity by solely decelerating the unbinding rate, τd would be increased and τa could be increased preferentially at lower concentrations.
(§7) In experiments designed to record activation and deactivation kinetics in CNG channels, theta-glass pipettes were used in which one barrel contained control solution and the other barrel the test solution supplemented with the ligand. The theta-glass pipette was mounted on a piezo actuator which was controlled by the computer controlling the voltage protocols. The effective switch time of the solution exchange, t10–90, determined by an open patch pipette and different solutions in the barrels, was negligible compared to the time courses of activation and deactivation to be considered. […]
(§8) The speed of activation and deactivation was determined by fitting the respective time courses with single exponentials yielding the time constant τ. […] To quantify the time course at a given cNMP concentration for a number of measurements τwm and τ were treated equally. […]

[4] = biological target: T5, CNGA2:CNGA4:CNGB1b channels (Rattus norvegicus, UniProt A0A8I5ZN27+Q00195+Q64359); assay: Activation and deactivation kinetics by concentration jumps, CNGA2:CNGA4:CNGB1b channels; type: cell-based
T5 construct: expressed in transfected cells; host or cells: Xenopus laevis oocytes co-injected with cRNAs (2:1:1); inside-out patches
T5 sequence (Q64359 whole entry, one chain of several): as the sequence (Q64359 whole entry, one chain of several) above
T5 sequence (A0A8I5ZN27 1-858 isoform A0A8I5ZN27-2, one chain of several): as the sequence (A0A8I5ZN27 1-858 isoform A0A8I5ZN27-2, one chain of several) above
Source text: as §6, §7, §8

[5] = tested on: CNGA2:CNGA4:CNGB1b channels; design: method as in PMID 17665892; details: cited from earlier work
[6] = CNGA2 channels, numeric mean values of box plots (Fig. 2a,b, Fig. 3) and text
[7] = homotetrameric CNGA2 channels, mean
[8] = homotetrameric CNGA2 channels, late current at +10 mV, mean

SMILES | H (Hill coefficient) [1] | EC50 [1] [nM] | EC50 [2] [nM] | H (Hill coefficient) [2] | EC50 [3, 6] [nM] | H (Hill coefficient) [3, 7] | EC50 [3, 8] [nM] | deactivation time constant τd compared to cGMP (1G) (CNGA2 channels; all tested concentrations) | activation time constant τa compared to cGMP (1G) (CNGA2 channels; at concentrations lower than 1 µM) | deactivation compared to the effect with CNGA2 channels ([4]; 10 µM) | activation time constant τa ([4]; low concentrations) | EC50 [5] [nM] | H ([1]; individual experiment, Fig. 5b, HCN2 channels)
CC(=O)NCCSc1nc2c(N)ncnc2n1C1OC2COP(=O)(O)OC2C1O (centres unmarked) [3A, 8-(Ac)AET-cAMP] | 1.7 | 70.6 | 4100 | 1.8 | 9900 | 2.3 | – | – | – | – | – | – | –
CC(=O)NCCCCCCCCCCSc1nc2c(N)ncnc2n1C1OC2COP(=O)(O)OC2C1O (centres unmarked) [7A, 8-(Ac)ADT-cAMP] | 1.5 | 14.6 | 470 | 2.7 | – | 2.4 | 2300 | – | – | – | – | – | –
CC(=O)NCCCCCCSc1nc2c(=O)[nH]c(N)nc2n1C1OC2COP(=O)(O)OC2C1O (centres unmarked) [5G, 8-(Ac)AHT-cGMP] | – | – | 230 | 2.0 | – | 2.7 | 80 | approximately an order of magnitude increased | larger | slowed to a much lower degree | not affected | – | –
Nc1nc2c(nc(Sc3ccc(Cl)cc3)n2C2O[C@@H]3COP(=O)(O)O[C@H]3[C@H]2O)c(=O)[nH]1 (stereo in doubt) [8-pCPT-cGMP] | – | – | – | – | – | – | – | – | – | – | – | 73 | –
CC(=O)NCCCCCCSc1nc2c(N)ncnc2n1C1OC2COP(=O)(O)OC2C1O (centres unmarked) [5A, 8-(Ac)AHT-cAMP] | 0.8 | 19.7 | 950 | 2.5 | – | 3.1 | 1400 | – | – | – | – | – | –
CC(=O)NCC(=O)NCCSc1nc2c(N)ncnc2n1C1OC2COP(=O)(O)OC2C1O (centres unmarked) [10A, 8-(Ac)AGET-cAMP] | 1.5 | 96.7 | 6600 | 2.2 | 34300 | 2.1 | 34200 | – | – | – | – | – | –
CC(=O)NCCOCCOCCSc1nc2c(N)ncnc2n1C1OC2COP(=O)(O)OC2C1O (centres unmarked) [8A, 8-(Ac)APT-cAMP] | 0.9 | 144 | 6000 | 2.2 | – | 2.4 | 24900 | – | – | – | – | – | –
Nc1ncnc2c1ncn2C1OC2COP(=O)(O)OC2C1O (centres unmarked) [1A, cAMP, reference compound] | – | – | – | – | – | – | – | – | – | – | – | – | 1.28
